Assay results taken from patent publication US12077503B2, “Substituted cyclic amides and their use as herbicides” (FMC CORPORATION, priority 2015, dated 2024).

Tests used:
Assay type in all cases: in vivo
[1] = system: giant foxtail (Setaria faberii); experiment: Test A preemergence; conditions: Setaria faberi, pre-emergence, 240 h, 0 to 100 scale where 0 is no effect and 100 is complete control, read-out: Foxtail, Giant plant response rating
In short: (§1)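 Each rating is a visual injury score from 0 to 100 given about 10 d after treatment, judged against untreated controls kept alongside in the greenhouse. In loam soil–sand blend, seeds got a preemergence directed soil spray, while postemergence plants were 2 to 10 cm tall at spraying.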

[2] = system: pigweed (Amaranthus retroflexus); experiment: Test A preemergence; conditions: Amaranthus retroflexus, pre-emergence, 240 h, 0 to 100 scale where 0 is no effect and 100 is complete control, read-out: Pigweed plant response rating
[3] = system: ryegrass, Italian (Italian ryegrass, Lolium multiflorum); experiment: Test A preemergence; conditions: Lolium multiflorum, pre-emergence, 240 h, 0 to 100 scale where 0 is no effect and 100 is complete control, read-out: Ryegrass, Italian plant response rating
In short: as §1

[4] = system: barnyardgrass (Echinochloa crus-galli); experiment: Test A preemergence; conditions: Echinochloa crus-galli, pre-emergence, 240 h, 0 to 100 scale where 0 is no effect and 100 is complete control, read-out: Barnyardgrass plant response rating
In short: as §1

[5] = system: Kochia (Kochia scoparia); experiment: Test A preemergence; conditions: Bassia scoparia, pre-emergence, 240 h, 0 to 100 scale where 0 is no effect and 100 is complete control, read-out: Kochia plant response rating
In short: as §1

[6] = system: ragweed (common ragweed, Ambrosia elatior); experiment: Test A preemergence; conditions: Ambrosia artemisiifolia, pre-emergence, 240 h, 0 to 100 scale where 0 is no effect and 100 is complete control, read-out: Ragweed plant response rating
In short: as §1

[7] = system: ducksalad (Heteranthera limosa); experiment: Test B flooded paddy test; conditions: Heteranthera limosa, 250 g ai/ha, Flood; 0 to 100 scale where 0 is no effect and 100 is complete control; read-out: Ducksalad plant response rating
In short: (§2)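 Compound goes directly into floodwater once pots are flooded 3 cm above soil, targeting plants at two leaves; the water depth is then held for the test duration. Plants sit 13–15 d in a greenhouse and are rated visually, 100 denoting complete control.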

[8] = system: sedge, umbrella (small-flower umbrella sedge, Cyperus difformis); experiment: Test B flooded paddy test; conditions: Cyperus difformis, 250 g ai/ha, Flood; 0 to 100 scale where 0 is no effect and 100 is complete control; read-out: Sedge, Umbrella plant response rating
In short: as §2

[9] = system: barnyardgrass (Echinochloa crus-galli); experiment: Test B flooded paddy test; conditions: Echinochloa crus-galli, 250 g ai/ha, Flood; 0 to 100 scale where 0 is no effect and 100 is complete control; read-out: Barnyardgrass plant response rating
In short: as §2

[10] = system: rice (Oryra sativa); experiment: Test B flooded paddy test; conditions: Oryza sativa, 250 g ai/ha, Flood; 0 to 100 scale where 0 is no effect and 100 is complete control; read-out: Rice plant response rating
In short: as §2

[11] = system: blackgrass (Alopecurus myosuroides); experiment: Test A postemergence; conditions: Alopecurus myosuroides, post-emergence, 240 h, read-out: Blackgrass plant response rating (0 to 100 scale)
In short: as §1

[12] = system: giant foxtail (Setaria faberii); experiment: Test A postemergence; conditions: Setaria faberi, post-emergence, 240 h, read-out: Foxtail, Giant plant response rating (0 to 100 scale)
In short: as §1

[13] = system: pigweed (Amaranthus retroflexus); experiment: Test A postemergence; conditions: Amaranthus retroflexus, post-emergence, 240 h, read-out: Pigweed plant response rating (0 to 100 scale)
In short: as §1

[14] = system: Galium (catchweed bedstraw, Galium aparine); experiment: Test A postemergence; conditions: Galium, post-emergence, 240 h, read-out: Galium plant response rating (0 to 100 scale)
In short: as §1

[15] = system: corn (Zea mays); experiment: Test A postemergence; conditions: Zea mays, post-emergence, 240 h, read-out: Corn plant response rating (0 to 100 scale)
In short: as §1

[16] = system: ryegrass, Italian (Italian ryegrass, Lolium multiflorum); experiment: Test A postemergence; conditions: Lolium multiflorum, post-emergence, 240 h, read-out: Ryegrass, Italian plant response rating (0 to 100 scale)
In short: as §1

[17] = system: barnyardgrass (Echinochloa crus-galli); experiment: Test A postemergence; conditions: Echinochloa crus-galli, post-emergence, 240 h, read-out: Barnyardgrass plant response rating (0 to 100 scale)
In short: as §1

[18] = system: wheat (Triticum aestivum); experiment: Test A postemergence; conditions: Triticum aestivum, post-emergence, 240 h, Postemergence, 31 g ai/ha; 0 is no effect, 100 is complete control; read-out: Wheat plant response rating (0 to 100 scale)
In short: as §1

[19] = system: Kochia (Kochia scoparia); experiment: Test A postemergence; conditions: Bassia scoparia, post-emergence, 240 h, read-out: Kochia plant response rating (0 to 100 scale)
In short: as §1

[20] = system: ragweed (common ragweed, Ambrosia elatior); experiment: Test A postemergence; conditions: Ambrosia artemisiifolia, post-emergence, 240 h, read-out: Ragweed plant response rating (0 to 100 scale)
In short: as §1

[21] = 125 g ai/ha, preemergence, visual injury rating, approximately 10 d
[22] = 125 g ai/ha, postemergence, visual injury vs untreated controls after approx. 10 d, 0 = no effect, 100 = complete control
[23] = Postemergence, 31 g ai/ha, 0 is no effect, 100 is complete control

For Cc1c(F)cccc1NC(=O)[C@H]1C(=O)N(C)C[C@@H]1c1ccc(C(F)F)cc1 [Compound 1261], the pest or weed control at 31 g/ha ([1]; 31 g ai/ha, Preemergence) was 90%, the pest or weed control at 125 g/ha [1, 21] was 90% and the pest or weed control at 31 g/ha ([2]; 31 g ai/ha, Preemergence) was 0%. The pest or weed control at 125 g/ha [2, 21] was 20%, the pest or weed control at 31 g/ha ([3]; 31 g ai/ha, Preemergence) was 20% and the pest or weed control at 125 g/ha [3, 21] was 30%. The pest or weed control at 31 g/ha ([4]; 31 g ai/ha, Preemergence) was 90%, the pest or weed control at 125 g/ha [4, 21] was 90% and the pest or weed control at 31 g/ha ([5]; 31 g ai/ha, Preemergence) was 70%. The pest or weed control at 125 g/ha [5, 21] was 80%, the pest or weed control at 31 g/ha ([6]; 31 g ai/ha, Preemergence) was 50% and the pest or weed control at 125 g/ha [6, 21] was 50%. It also gave a pest or weed control at 250 g/ha [7] of 100%, a pest or weed control at 250 g/ha [8] of 0% and a pest or weed control at 250 g/ha [9] of 75%. The pest or weed control at 250 g/ha [10] was 50%, the pest or weed control at 125 g/ha [11, 22] was 60% and the pest or weed control at 31 g/ha [11, 23] was 40%. It also gave a pest or weed control at 125 g/ha [12, 22] of 90%, a pest or weed control at 31 g/ha [12, 23] of 90% and a pest or weed control at 125 g/ha [13, 22] of 30%. It also gave a pest or weed control at 31 g/ha [13, 23] of 0%, a pest or weed control at 125 g/ha [14, 22] of 60% and a pest or weed control at 31 g/ha [14, 23] of 50%. For the same compound, the plant injury at 125 g/ha [15, 22] was 80%, the plant injury at 31 g/ha [15, 23] was 50% and the pest or weed control at 125 g/ha [16, 22] was 50%. For the same compound, the pest or weed control at 31 g/ha [16, 23] was 20%, the pest or weed control at 125 g/ha [17, 22] was 90% and the pest or weed control at 31 g/ha [17, 23] was 90%. It also gave a plant injury at 31 g/ha [18] of 20%, a pest or weed control at 125 g/ha [19, 22] of 50% and a pest or weed control at 31 g/ha [19, 23] of 20%. It also gave a pest or weed control at 125 g/ha [20, 22] of 30% and a pest or weed control at 31 g/ha [20, 23] of 0%.
